From patent US9487818B2, “TOP2A inhibition by temozolomide and its predictive value of GBM patients survival” (COUNCIL OF SCIENTIFIC & INDUSTRIAL RESEARCH, priority 2010, dated 2016)

Tests used:
U251 glioma cells = assay: Cell viability (MTT) assay in U251 cells transfected with TOP2A or cyclophilin siRNA; format: cell-based; details: MTT assay after 48 hrs
Description: At test for difference in the % viability of the control and TOP2A siRNA treated cells was estimated and the p values are shown: 2, 4, 8 and 16 μg/mL; p=0.0297, 0.0336, <0.0001 and 0.042 respectively.
The experiment was carried out as in “D” but the cells were treated with temozolomide. At test for difference in the % viability of the control and TOP2A siRNA treated cells was estimated and the p values are shown: 250, 500, 1000 and 2000 μM; p=0.0668, 0.0097, 0.0687 and 0.0134 respectively.
U373, U138, LN18, LN229, U343, U87, K562, U251 and SVG cells were cultured in DMEM respectively with 10% Fetal bovine serum, penicillin and streptomycin at 37° C. in a humidified atmosphere with 5% CO2. The human TOP2A and cyclophilin siRNA duplexes were designed and chemically synthesized by Dharmacon Research (Lafayette, Colo.). The SMARTpool siRNA is a mixture of four different siRNA duplexes targeting distinct coding region sequences of TOP2A (Genbank™ accession number NM_001067). […]
For chemosensitivity assays, 24 hours after plating, the cells were treated with the cytotoxic drugs and incubated at 37° C., 5% CO2 for 45 hours. […] Three hours after MTT addition, the formazan crystals were dissolved in DMSO (200 μl) and measured as absorbance at 550 nm. The absorbance by the control cells was considered to be 100% and all samples were normalized to the control cells. […]

GBM patients = assay: Prospective cohort of GBM patients, survival (Kaplan Meier analysis); format: in vivo, human; details: for median survival: radiotherapy with temozolomide
Description: Kaplan-Meier survival estimates for 102 GBM patients are calculated for TOP2A transcript levels. Survival curves for the groups positive (log 2 ratio≧9.25; n=34) and negative (log 2 ratio<9.25; n=68) for TOP2A in univariate analysis.
Newly diagnosed glioblastoma patients (n=102) who underwent surgery in the two clinical centers (NIMHANS/SSIHMS) were prospectively included. Approval by the ethics committee and patient consent were obtained prior to initiation of the study. The patients were recruited based on the following inclusion criteria: 1) Adult patients (age between 18 to 65 years) with a supratentorial lobar tumor 2) Patients who underwent maximal safe resection of the tumor with minimal residue noted on post operative MRI scan 3) Patients with post operative Karnofsky's Performance Score (KPS)≧70.
All patients underwent maximal safe resection of the tumor. All patients underwent uniform adjuvant therapy consisting of radiotherapy, administered with a total dose of 59.4 Gy, given in 33 fractions, along with concomitant chemotherapy with temozolamide, administered at the dose of 100 mg/day which was continued daily for 45 days. Subsequently, five cycles of cyclical chemotherapy with temozolamide at the dose of 150 mg/sq. m body surface area for 5 days every 28 days was administered. The patients were followed up clinically and with MR imaging. The maximum follow up period was 34 months.
A cohort of 102 patients of GBM were prospectively recruited and managed by standard treatment protocol (as explained in methods). […] In this cohort, as expected, age was an important predictor of poor outcome as noted by Cox regression analysis (p=0.037; HR=1.023; B=0.022). […] The effect of TOP2A transcript level and age on survival was further evaluated by Cox proportional hazard model to elicit the independent effect of TOP2A on survival. It was noted that both age (p=0.033; HR=1.023; B=0.023) and TOP2A transcript level (p=0.035; HR=0.888; B=−0.119) were significant predictors by multivariate analysis. […]

SMILES | sensitivity of TOP2A siRNA transfected cells in comparison to cyclophilin siRNA transfected cells (U251 glioma cells) | median overall survival (GBM patients; 102 GBM patients, resection, radiotherapy with concomitant and cyclical adjuvant temozolomide) | median survival (GBM patients; patients with TOP2A mRNA levels <9.25 log 2 ratio) | median survival (GBM patients; patients with TOP2A mRNA levels ≧9.25 log 2 ratio)
COc1cc([C@@H]2c3cc4c(cc3[C@@H](O[C@@H]3O[C@@H]5CO[C@@H](C)O[C@H]5[C@H](O)[C@H]3O)[C@H]3COC(=O)[C@H]23)OCO4)cc(OC)c1O [etoposide] | less efficiently |  |  | 
Cn1nnc2c(C(N)=O)ncn2c1=O [temozolomide] |  | 16 months | 13 months | 22 months
